This is an account of results in US9889180B2, “Method of treating cancer” (Agency for Science, Technology and Research, priority 2012, dated 2018).

In one series the test system is RWPE1-PI3K cells. As to the kind of experiment: FACS cell death analysis in RWPE1-PI3K cells. Format: cell-based, human. Conditions: DZNep (2.5 μM) for 3 days with increasing doses of IFN-γ. On the procedure:
For the assessment of cell death, cells were harvested in 70% ethanol. Fixed cells were stained with Propidium Iodide (P.I) (50 μg/mL). The stained cells were analyzed for DNA content by FACS in a FACSCalibur (Becton Dickinson Instrument). % of cell death was defined as the sub-G1 population quantified using the CellQuest software (Becton Dickinson). The percentage of dead cells or sub-G1 cells was calculated by comparing the results of each experiment to the results from DMSO-treated cells. Each assay was repeated a minimum of three times, with results reported as means+s.e.m.

In series [1] the test system is EZH2 and IFNGR1 expression. Kind of series: Immunohistochemistry of EZH2 and IFNGR1 in DU145 xenograft tumors. Particulars: tumors resected from treated mice. Format: in vivo. On the procedure:
Tissue microarray slides (PR956, BR1503b, LC2083, and LV6161) were purchased from US Biomax. Staining and image analysis of tissue microarray were performed by Histopathology Department from Institute of Molecular and Cell Biology, Agency for Science, Technology, and Research (A*STAR), Singapore. Anti-EZH2 (D2C9 XP) antibody was purchased from Cell Signaling, anti-MYC (9E10) and anti-IFNGR1 antibody (GIR-94) was purchased from Santa Cruz Biotechnology. Briefly, five-micron paraffin-embedded tissue sections cut, deparaffinized, rehydrated, antigens were retrieved by Proteinase K solution; sections were then incubated in 3% H2O2 at room temperature to block endogenous peroxidase. Slides were incubated in primary antibody against EZH2 or IFNGR1 for 45 mins followed by 30 min incubation with anti-mouse Labelled Polymer (Dako, Calif.). Specificity of the immunostaining was determined by the inclusion of isotype-specific IgG as negative control. […]
For in vivo evaluation of DZNep and IFN-γ treatment, the experiments were conducted in compliance with animal protocol approved by the ASTAR-Biopolis Institutional Animal Care and Use Committee (IACUC) of Singapore. […] Tumors were measured by vernier calliper at least twice per week and tumors volume was calculated with formula: V=W*W*L/2. […] Differences among groups and treatments were determined by ANOVA followed by t tests. […]

In the next series the test system is DU145 cells. As to the kind of experiment: Cell proliferation assay (CellTiter-Glo) in DU145 cells. Particulars: siRNA knockdown combined with IFN-γ treatment. The format is cell-based, human. On the procedure: (§1) The optimal cell seeding was determined empirically for all cell lines by examining the growth of a wide range of seeding densities in a 96-well format to identify conditions that permitted proliferation for 6 days. Cells were then plated at the optimal seeding density 24 h before siRNA or drug treatment in triplicate. Plates were incubated for 6 days at 37° C. in 5% CO2. Cells were then lysed with CellTiter-Glo (CTG) (Promega) and chemiluminescent signal was detected with a microplate reader (TECAN). In addition, an untreated plate of cells was harvested at the time of drug or siRNA addition (T0) to quantify the starting number of cells. CTG values obtained after the 6 day treatment were expressed as percentages of the T0 value and plotted against time of treatment. Cells received 1-5 μM of DZNep, 25 ng/mL of IFN-γ and 0.1-2.5 μM of GSK343 unless stated otherwise for 72-96 h.

The next series concerns LNCaP cells. As to the kind of experiment: Cell proliferation assay (CellTiter-Glo) in LNCaP cells. The format is cell-based, human. Conditions: siRNA knockdown combined with IFN-γ treatment. Here is the method: as §1
Background: Cellular ATP, detected with luciferase, serves as a proxy for viable cell number.

Series [2] has as its system JAK2 phosphorylation (Tyr1007/1008). As to the kind of experiment: pJAK2 and total JAK2 ELISA assay in DU145 cells. Particulars: in response to IFN-γ (25 ng/mL) stimulation. The format is cell-based, human. On the procedure:
pJAK2 levels were assessed using an ELISA assay kit (Tyr1007/1008, Life Technologies) and total JAK2 level with JAK2 (total) ELISA assay kit. Cells were first lysed with RIPA buffer and processed in the same way as western blot samples. pJAK2 and total JAK2 levels were determined by performing the ELISA assay on the processed cell lysates according to the manufacturer's protocol. The results were expressed as fold change after normalizing the pJAK2 (Tyr1007/1008) level to the total JAK2 level.
(In general: In an ELISA, binding on a coated surface is turned into a signal by an enzyme label.)

With `Cl.Nc1nccc2c1ncn2[C@@H]1C=C(CO)[C@@H](O)[C@H]1O` [DZNep, (−)-1-[(1R,4R,5S)-3-(Hydroxymethyl)-4,5-dihydroxy-2-cyclopenten-1-yl]4-aminoimidazo[4,5-c]pyridine hydrochloride], the “induction of apoptosis / cell death” value with RWPE1-PI3K cells was “but not RWPE1-PI3K cells”. In series [1], the “EZH2 expression in tumors (IHC)” value is “downregulation of EZH2” and the “IFNGR1 expression in tumors (IHC)” value is “upregulation of IFNGR1”.
As to “EZH2 knockdown: EZH2 siRNA: 5′-GACUCUGAAUGCAGUUGCU-3′ (SEQ ID NO: 1) (other strand not given here)”, the “cell growth after knockdown” value is “remarkable synergy in cell growth regression” in the series on DU145 cells and “no such an effect was seen” in the series on LNCaP cells. The “JAK2 phosphorylation after knockdown” value in series [2] is recorded as “enhanced”.
